Reference: US20070244155A1 (AMGEN INC., priority 2006, published 2007)

biological target: T1, human GPR40 (Homo sapiens, UniProt O14842); assay: Cell-based aequorin assay using human GPR40; conditions: CHO cells transfected with GPR40 and aequorin expression vectors; aequorin luminescence; activation of human GPR40; read-out: Relative EC50
T1 construct: expressed in transfected cells; host or cells: CHO cells
Description: A cell-based aequorin assay may be employed to characterize the modulatory activity of compounds on the GPR40 signaling pathway. In an exemplary assay, CHO cells are transfected in a 15 cm plated containing 14 million cells with 5 μg of GPR40 expression vector and 5 μg of Aequorin expression vector (Euroscreen) using Lipofectamine 2000 (Invitrogen). After 17-24 hours post-transfection, cells are washed with phosphate buffered saline (PBS) and detached from the tissue culture dish with 2 mL of trypsin (0.25%(w/v)). Trypsinization is halted with 28 mL of Hanks Buffered Salt Solution containing 20 mM Hepes (H/HBSS) and 0.01% fatty acid-free bovine serum albumin (BSA) or 0.625% fatty acid-free human serum albumin (HSA). Coelantrazine is added to 1 ug/mL and the cells are incubated for 2 hours at room temperature. Cells are gently mixed every 15 minutes. Compounds are dissolved in dimethyl sulfoxide for preparation of 10 mM stock solutions. Compounds are diluted in H/HBSS containing either 0.01% BSA or 0.625% HSA. Serial dilutions of the test compounds are prepared to determine dose response. Aequorin luminescence measurements are made using an EG&G Berthold 96-well luminometer and the response is measured over a 20 second interval after cells and compounds are mixed. The area-under-curve from 2-20 seconds is plotted to determine dose response. The EC50 (effective concentration to reach 50% maximal response) is determined from the dose response plot. Table 1 includes representative data (EC50 values) obtained for exemplary compounds of the invention for the relative activation of human GPR40. […] Therefore, in some embodiments, the invention provides any of the compounds listed in Table 1 individually or as members of a group and pharmaceutically acceptable salts, esters, solvates, tautomers, stereoisomers, and/or prodrugs thereof.

T1 sequence (O14842 whole entry): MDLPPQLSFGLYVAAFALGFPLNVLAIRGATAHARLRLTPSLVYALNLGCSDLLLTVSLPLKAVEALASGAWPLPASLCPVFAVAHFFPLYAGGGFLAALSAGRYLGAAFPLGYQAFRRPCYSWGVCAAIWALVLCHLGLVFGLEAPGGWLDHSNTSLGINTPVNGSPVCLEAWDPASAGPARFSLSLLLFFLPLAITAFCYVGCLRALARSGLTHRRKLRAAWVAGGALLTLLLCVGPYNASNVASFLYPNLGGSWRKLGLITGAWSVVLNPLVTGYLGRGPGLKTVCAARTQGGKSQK

SMILES | EC50 [nM]
C=C1COc2cc(OCc3ccc(-c4cc(C)ccc4OCCCC)cc3)ccc2[C@H]1CC(=O)O [Example 36, [(S)-7-(2′-Butoxy-5′-methyl-biphenyl-4-ylmethoxy)-3-methylene-chroman-4-yl]-acetic acid] | < 100
C=C1COc2cc(OCc3ccc(-c4cc(C)ccc4OCCCC)cc3)ccc2[C@@H]1CC(=O)O [Example 37, [(R)-7-(2′-Butoxy-5′-methyl-biphenyl-4-ylmethoxy)-3-methylene-chroman-4-yl]-acetic acid] | 100 to 1000
C=C1CCc2cc(OCc3cccc(-c4ccc(C(F)(F)F)cc4)c3)ccc2C1CC(=O)O (centres unmarked) [Example 38, 2-(6-(3-(4-Trifluoromethylphenyl)benzyloxy)-2-methylene-1,2,3,4-tetrahydronaphthalen-1-yl)acetic acid] | 100 to 1000
C/C=C1/COc2cc(OCc3ccc(-c4cc(C)ccc4OCCCC)cc3)ccc2C1CC(=O)O (centres unmarked) [Example 41] | 100 to 1000
O=C(O)CC1COCc2cc(OCc3cccc(-c4ccc(C(F)(F)F)cc4)c3)ccc21 (centres unmarked) [Example 42, 2-(7-(3-(4-Trifluoromethylphenyl)benzyloxy)-3,4-dihydro-1H-isochromen-4-yl)acetic acid] | 100 to 1000
Cc1ccccc1/C=C/c1ccc2c(c1)CCCC2CC(=O)O (centres unmarked) [Example 46, [6-((E)-2-o-Tolyl-vinyl)-1,2,3,4-tetrahydro-naphthalen-1-yl]-acetic acid] | 1000 to 10000
COc1ccc(/C=C/c2ccc3c(c2)CCCC3CC(=O)O)cc1 (centres unmarked) [Example 47, {6-[(E)-2-(4-Methoxy-phenyl)-vinyl]-1,2,3,4-tetrahydro-naphthalen-1-yl}-acetic acid] | 1000 to 10000
O=C(O)CC1CCCc2cc(CCc3ccc(C(F)(F)F)cc3)ccc21 (centres unmarked) [Example 48, {6-[2-(4-Trifluoromethyl-phenyl)-ethyl]-1,2,3,4-terahydro-naphthalen-1-yl}-acetic acid] | 1000 to 10000
O=C(O)CC1CCCc2cc(CCc3ccc(-c4ccccc4)cc3)ccc21 (centres unmarked) [Example 49, [6-(2-Biphenyl-4-yl-ethyl)-1,2,3,4-tetrahydro-naphthalen-1-yl]-acetic acid] | 1000 to 10000
COc1ccc(COc2ccc3c(c2)CCC(=O)N3CCC(=O)O)cc1 [Example 50, 3-[6-(4-Methoxy-benzyloxy)-2-oxo-3,4-dihydro-2H-quinolin-1-yl]-propionic acid] | 1000 to 10000
O=C(O)CCn1ccc2cc(OCc3cccc(-c4ccc(C(F)(F)F)cc4)c3)ccc21 [Example 51] | 1000 to 10000
O=C(O)Cn1ccc2cc(OCc3cccc(-c4ccc(C(F)(F)F)cc4)c3)ccc21 [Example 52] | 1000 to 10000
O=C(O)CCn1ccc2cc(OCc3ccccc3)ccc21 [Example 53] | 1000 to 10000
O=C(O)c1cc2ccc(OCc3cccc(Oc4ccccc4)c3)cc2oc1=O [Example 54, 7-(3-Phenoxybenzyloxy)-2-oxo-2H-chromene-3-carboxylic acid] | 1000 to 10000
Cc1cc(Cl)ccc1-c1cccc(COc2ccc3c(c2)CCC[C@@H]3CC(=O)O)c1 [Example 55] | 100 to 1000
Cc1nc(-c2ccc(C(F)(F)F)cc2)sc1COc1ccc2c(c1)CCC[C@@H]2CC(=O)O [Example 56] | 100 to 1000
COc1cccc(-c2ccc(COc3ccc4c(c3)CCC[C@H]4CC(=O)O)cc2)c1 [Example 57, (S)-[6-(3′-Methoxy-biphenyl-4-ylmethoxy)-1,2,3,4-tetrahydro-naphthalen-1-yl]-acetic acid] | 1000 to 10000
COc1cccc(-c2ccc(COc3ccc4c(c3)CCC[C@@H]4CC(=O)O)cc2)c1 [Example 58, (R)-[6-(3′-Methoxy-biphenyl-4-ylmethoxy)-1,2,3,4-tetrahydro-naphthalen-1-yl]-acetic acid] | 1000 to 10000
CCOc1ccc(F)c(-c2ccc(COc3ccc4c(c3)CCC[C@H]4CC(=O)O)cc2)c1 [Example 59, (S)-[6-(5′-Ethoxy-2′-fluoro-biphenyl-4-ylmethoxy)-1,2,3,4-tetrahydro-naphthalen-1-yl]-acetic acid] | 1000 to 10000
Cc1ccc(-c2nc(C)c(COc3ccc4c(c3)OCC[C@@H](C(=O)O)C4)s2)cc1 [Example 61, 8-((4-Methyl-2-p-tolylthiazol-5-yl)methoxy)-2,3,4,5-tetrahydrobenzo[b]oxepine-4-carboxylic acid] | 100 to 1000
O=C(O)[C@@H]1CCOc2cc(OCc3cccc(-c4ccc(C(F)(F)F)cc4)c3)ccc2C1 [Example 63] | 1000 to 10000
Cc1c(Cl)cccc1-c1cccc(COc2ccc3c(c2)OCC[C@@H](C(=O)O)C3)c1 [Example 64] | 100 to 1000
Cc1c(Cl)cccc1-c1cccc(COc2ccc3c(c2)OCC[C@H](C(=O)O)C3)c1 [Example 65] | 1000 to 10000
